Measurements published in patent US5248604A, “Enzymatically active recombinant human acetylcholinesterase and hosts and vectors for expression thereof” (priority 1991, dated 1993).

Tests used:
[1] = molecular target: T1, recombinant human acetylcholinesterase mutant ser/r-met-AChE (serine instead of cysteine at position 611, additional N-terminal methionine; SEQ ID NO:1 numbering) (Homo sapiens, UniProt P22303, C611S); assay: Inhibitor specificity: enzyme reacted five minutes with inhibitor, then acetylthiocholine added (Ellman assay); format: biochemical; settings: substrate acetylthiocholine, non-purified enzyme
T1 construct: made in house; host or cells: E. coli S.phi.930 harboring pMLF-52ser
T1 sequence (P22303 32-614 C611S): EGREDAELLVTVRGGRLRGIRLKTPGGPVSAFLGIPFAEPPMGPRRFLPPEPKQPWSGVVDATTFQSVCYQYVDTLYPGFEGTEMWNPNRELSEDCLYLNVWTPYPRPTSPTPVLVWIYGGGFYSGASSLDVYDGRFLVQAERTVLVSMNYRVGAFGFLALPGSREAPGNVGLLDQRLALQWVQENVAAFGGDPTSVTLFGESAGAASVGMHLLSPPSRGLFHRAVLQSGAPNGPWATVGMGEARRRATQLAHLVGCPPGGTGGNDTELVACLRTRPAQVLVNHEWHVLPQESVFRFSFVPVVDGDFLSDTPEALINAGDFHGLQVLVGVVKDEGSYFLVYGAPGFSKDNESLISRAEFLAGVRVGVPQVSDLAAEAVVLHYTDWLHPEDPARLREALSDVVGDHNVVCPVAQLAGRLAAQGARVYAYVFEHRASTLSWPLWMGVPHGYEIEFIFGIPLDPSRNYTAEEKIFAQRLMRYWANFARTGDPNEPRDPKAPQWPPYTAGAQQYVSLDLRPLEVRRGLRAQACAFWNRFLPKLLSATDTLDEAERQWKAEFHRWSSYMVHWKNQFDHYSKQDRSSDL
Method: (§1) AChE activity was assayed by the spectrophotometric method of Ellman using acetylthiocholine as substrate (Ellman, G.L. et al. ([…]) Biochem. Pharm. 7: 88-95)). Acetylthiocholine hydrolysis generates free thiocholine which reacts with Ellman reagent (DTNB) to produce a yellow chromophore. The concentration of the yellow chromophore is determined by the absorption at 412 nm and is proportional to the amount of AChE present. One enzyme unit (U) is the amount of enzyme which hydrolyses 1 μmole of substrate per minute. The extinction coefficient of 1 M chromophore is […]. Specific activity is expressed as U/mg protein.
(§2) The authenticity of the activity of the refolded r-met-AChE and ser/r-met-AChE was verified by testing the refolded protein with two different substrates and a specific inhibitor. Acetylthiocholine (the specific substrate), and butyrylthiocholine (the BuChE substrate), and a specific inhibitor BW-284C51 (see Background of the Invention) were tested to see whether the recombinant enzyme retained the specific characteristics of the naturally-occurring enzyme. The enzyme was assayed with each of the two substrates, or first reacted for five minutes with the specific inhibitor BW-284651 and then the specific substrate was added to the reaction mix. […] Since the butyrylthiocholine was present at a 20-fold higher concentration than acetylthiocholine it is seen that the enzymatic activity towards the butyrylthiocholine is 200-fold less than towards the specific substrate. No activity at all was detected towards the 0.05 mM butyrylthiocholine.

[2] = molecular target: T2, recombinant human acetylcholinesterase mutant ser/r-met-AChE (serine instead of cysteine at position 611, additional N-terminal methionine); SEQ ID NO:1 numberin (Homo sapiens, UniProt P22303, C611S); assay: as above; format: biochemical; settings: increasing dosages from 0.8×10^-8 M to 0.8×10^-6 M; dose-dependent
T2 construct: made in house; host or cells: E. coli S.phi.930 harboring pMLF-52ser
T2 sequence (P22303 32-614 C611S): as above
Method: as §1, §2

[3] = system: CC(=O)SCC[N+](C)(C)C; assay: purified protein, by the assay type; settings: other: refolded enzyme; Lineweaver-Burk plot (FIG. 8); pH 8.0
Method: Lineweaver-Burk Plot of ser/r-met-AChE Enzyme kinetics were determined for the mutant rAChE using acetylthiocholine as substrate.
AChE activity was assayed by the spectrophotometric method of Ellman using acetylthiocholine as substrate (Ellman, G.L. et al. (1981) Biochem. Pharm. 7: 88-95)). Acetylthiocholine hydrolysis generates free thiocholine which reacts with Ellman reagent (DTNB) to produce a yellow chromophore. The concentration of the yellow chromophore is determined by the absorption at 412 nm and is proportional to the amount of AChE present. One enzyme unit (U) is the amount of enzyme which hydrolyses 1 μmole of substrate per minute. The extinction coefficient of 1 M chromophore is 13.6×10^4. Specific activity is expressed as U/mg protein.

Compound	inhibition at 0.8 µM ([1]; BW284C51 0.8 × 10^-6 M) [%]	inhibition at 0.08 µM ([1]; BW284C51 0.8 × 10^-7 M) [%]	inhibition at 0.008 µM ([1]; BW284C51 0.8 × 10^-8 M) [%]	inhibition [2]	Km [3] [µM]
C=CC[N+](C)(C)c1ccc(CCC(=O)CCc2ccc([N+](C)(C)CC=C)cc2)cc1 [BW284C51]	100	87	55	57%-100%	–
recombinant human acetylcholinesterase mutant ser/r-met-AChE (serine instead of cysteine at position 611, additional N-terminal methionine; SEQ ID NO:1 numbering) (Homo sapiens; C611S)	–	–	–	–	100
